Experimental data: patent publication US11090266B2, “Nanoliposomal c-MYC-siRNA inhibits in vivo tumor growth of cisplatin-resistant ovarian cancer” (priority 2014, dated 2021)

Tested on: A2780CP20 tumors
Assay: Therapeutic efficacy in A2780CP20 tumor-bearing nude mice
Type: in vivo
Conditions: siRNA-DOPC 5 μg siRNA/injection, CIS 160 μg/injection, i.p. once a week for 4 weeks
Protocol: c-MYC was overexpressed in cells with low c-MYC levels (A2780) (FIG. 16A). The rate of cell proliferation of these cells were higher compared with empty vectors (FIG. 16B). The effect of nanoliposomal-c-MYC-siRNA was tested on target depletion, and therapy efficacy. Nude mice were injected intraperitoneally (i.p.) with A2780CP20 cells. A nude mice-bearing tumors were injected i.p. with nanoliposomal siRNAs. Seven days post-injection, mice were sacrificed and the tumors were dissected. As shown is FIG. 18A, the anti-tumor effects of nanoliposomal-c-MYC-siRNA as compared to C-siRNA were tested in tumor-bearing mice. […] All nanoliposomal-c-MYC-siRNAs and CIS treatments were injected i.p. once a week for 4 weeks. In vitro experiments were repeated in HEYA8 ovarian cancer cells which express high c-MYC levels (FIG. 19A-19D). Additional liposomal c-MYc-siRNA formulation was performed (FIG. 20A-20D) and FIGS. 22 and 23). […]
As shown in FIG. 16A-16B the directed effect effects of c-MYC overexpression in ovarian cancer cells. […] Cell viability was calculated. […]
DOPC-PEG-cholesterol-based nanoliposomes were used for in vivo c-MYC-siRNA delivery. First, we assessed whether the c-MYC silencing in vivo. […] Tumor weight and number of nodules were assessed in five treatment groups (10 mice each): (a) C-siRNA, (b) cisplatin (CIS) alone, (c) c-MYC-siRNA, (d) C-siRNA plus CIS, and (e) c-MYC-siRNA plus CIS. […]

Structure (SMILES): N.N.[Cl][Pt][Cl] [CIS, cisplatin]
- tumor weight / tumor growth: did not induce a significant effect on tumor growth
